# Laboratory results from patent publication US8426340B2, “Plant growth enhancement with combinations of PESA and plant growth regulators” (Valent BioSciences Corporation, priority 2009, dated 2013).
# Structures can show the parent of a compound that is named as a salt.
# Tests used:
# Type in all cases: in vivo
# [1] = tested on: lettuce; experiment: Lettuce seed treatment, germination under thermodormancy conditions; details: 33° C. and continuous light
# Experimental: (§1) Seed was sieved with a screen of mesh size appropriate to remove broken seeds and small trash. Cracked or otherwise damaged seeds were removed. The seed was well mixed, and 50 g samples were weighed into small plastic trays. Seed treatment slurries were made by adding measured amounts of PESA or its salts and other AIs to sufficient water to bring them up to a standard volume, typically 2 ml. A fungicide (Maxim XL; Syngenta Agricultural Products, Greensboro, N.C.), a polymeric binder (CF-Clear; Becker-Underwood, Ames, Iowa), and a colorant (Color Coat Red; Becker-Underwood, Ames, Iowa) were also included in the slurry at label rates. A small aliquot of this slurry was applied to the seed using a Hege 11 coater (Wintersteiger, Salt Lake City, Utah) with a six-inch bowl at a slurry rate of 30 ounces per 100 lbs of seed. The slurry was deposited drop-wise on the spinning disk atomizer using a syringe.
# (§2) After treatment, each seed sample was placed in plastic trays and dried at a room temperature for 20 to 60 minutes. The samples were then placed in small plastic bags. […]
# To test the effect of chemical application on thermodormancy, lettuce seed was treated with PESA salt (50 g/cwt), 6BA (1 g/cwt), or a combination of PESA salt and 6BA. Lettuce seed was then grown under conditions that promote thermodormancy (33° C. and continuous light) and final seedling germination was determined (Table 1).
# [2] = tested on: lettuce; experiment: Lettuce seed treatment, root growth; details: 25° C. in darkness, 3 days
# Experimental: as §1, §2
# To test the effect of chemical application on root growth, lettuce seed was treated with PESA salt (50 g/cwt), 6BA (1 g/cwt), or a combination of PESA salt and 6BA. Treated lettuce seed was grown at 25° C. in darkness, and root lengths were determined after 3 days.
# [3] = tested on: cotton; experiment: Pouch assay, root length of cotton seedlings (6BA); details: for root length (cm) of cotton: 6BA 0 mg/liter
# Experimental: (§3) Seeds were placed in germination pouches consisting of germination paper hydrated with sterile water that was an insert in a gas-permeable 16×14 cm plastic pouch (CYG Pouch; Mega International, St. Paul, Minn.). In these examples, in pouch solution evaluation, PESA sodium salt or other active ingredients were added to the sterile water in the pouch. The pouches were arranged in a completely randomized block design in growth racks and placed in 19-liter polycarbonate food storage containers (Rubbermaid Commercial Products, Winchester, Va.). The sealed containers were held in an upright growth cabinet maintained at 25° C. with a 12 hour light: 12 hour dark photoperiod. When Abscisic acid was assayed in pouch studies, the pouches were first filled with sterile water to promote germination. The sterile water solutions were replaced after germination (4 days) and replaced with solutions containing ABA. After 6 days, the containers were removed from the growth cabinet, and the lengths of the roots and shoot were measured.
# [4] = tested on: rice cv. Cheniere; experiment: Pouch assay, root length of rice seedlings; details: for effect on root length of rice seedlings / effect on main root length of rice cv. Cheniere: pouch solution; for effect on main root length of rice cv. Cheniere: combination: 3, 10, or 30 mg/liter PESA with 1 or 10 mg/liter trinexapac-ethyl
# Experimental: as §3
# In pouch solution evaluation, treatment with the gibberellin biosynthesis inhibitor trinexapac-ethyl on […].
# [5] = tested on: cotton; experiment: Pouch assay, root length of cotton seedlings (ABA)
# Experimental: as §3
# [6] = PESA salt 50 g/cwt, 6BA 1 g/cwt, alone or in combination
# [7] = seed treatment 50 g/cwt PESA salt, 0 g/cwt 6BA
# [8] = ACC alone 1, 10, or 100 mg/liter, combination: 3, 10, or 30 mg/liter PESA with 1, 10, or 100 mg/liter ACC, except 10 mg/liter PESA with 1 mg/liter ACC
compound,measurement,setting,value
"O=C(O)CCC(=O)NCCc1ccccc1 [PESA salt, N-(2-phenylethyl)succinamic acid]",effect on lettuce germination,[1]; [6],no effect
same,Germination (%),[1]; [7],14.9%
same,effect on lettuce root growth,[2]; [6],no effect on lettuce root growth
same,Root length (cm),[2]; [7],3.8 cm
same,root length (cm) of cotton,[3]; PESA salt 3 mg/liter,9.8 cm
same,root length (cm) of cotton,[3]; PESA salt 10 mg/liter,11.9 cm
same,root length (cm) of cotton,[3]; PESA salt 30 mg/liter,13.0 cm
same,effect on main root length of cotton seedlings,"[3]; pouch solution, combination: 10 or 30 mg/liter PESA with 1 or 10 mg/liter 6BA",increased root length in a dose-dependent manner
same,root length (cm) of rice cv. Cheniere,"[4]; Table 3, PESA salt 3 mg/liter, trinexapac-ethyl 0 mg/liter",12.1 cm
same,root length (cm) of rice cv. Cheniere,"[4]; Table 3, PESA salt 10 mg/liter, trinexapac-ethyl 0 mg/liter",12.5 cm
same,root length (cm) of rice cv. Cheniere,"[4]; Table 3, PESA salt 30 mg/liter, trinexapac-ethyl 0 mg/liter",13.1 cm
same,root length (cm) of rice cv. Cheniere,"[4]; Table 4, PESA salt 3 mg/liter, ACC 0 mg/liter",9.7 cm
same,root length (cm) of rice cv. Cheniere,"[4]; Table 4, PESA salt 10 mg/liter, ACC 0 mg/liter",9.8 cm
same,root length (cm) of rice cv. Cheniere,"[4]; Table 4, PESA salt 30 mg/liter, ACC 0 mg/liter",9.4 cm
same,root length (cm) of rice cv. Cheniere,"[4]; Table 5, PESA salt 3 mg/liter, AVG 0 mg/liter",11.4 cm
same,root length (cm) of rice cv. Cheniere,"[4]; Table 5, PESA salt 30 mg/liter, AVG 0 mg/liter",12.3 cm
same,effect on root length of rice seedlings,[4]; [8],increased root length
same,effect on root length of rice seedlings,[4]; PESA salt alone (AVG experiment),increased root length
same,effect on main root length of rice cv. Cheniere,[4],increased root length in a dose-dependent manner
same,root length (cm) of cotton,"[5]; PESA salt 3 mg/liter, ABA 0 mg/liter",11.9 cm
same,root length (cm) of cotton,"[5]; PESA salt 10 mg/liter, ABA 0 mg/liter",11.1 cm
"CC1=CC(=O)CC(C)(C)[C@@]1(O)/C=C/C(C)=C\C(=O)O [ABA, abscisic acid]",root length (cm) of cotton,"[5]; PESA salt 0 mg/liter, ABA 1 mg/liter",10.4 cm
same,root length (cm) of cotton,"[5]; PESA salt 0 mg/liter, ABA 10 mg/liter",10.0 cm
same,effect on root growth of cotton seedlings,"[5]; pouch solution, combination: PESA 3 or 10 mg/liter with ABA",inhibited root growth
"NC1(C(=O)O)CC1 [ACC, 1-aminocyclopropane carboxylic acid, reference compound]",root length (cm) of rice cv. Cheniere,"[4]; Table 4, PESA salt 0 mg/liter, ACC 1 mg/liter",8.8 cm
same,root length (cm) of rice cv. Cheniere,"[4]; Table 4, PESA salt 0 mg/liter, ACC 10 mg/liter",7.8 cm
same,root length (cm) of rice cv. Cheniere,"[4]; Table 4, PESA salt 0 mg/liter, ACC 100 mg/liter",4.3 cm
same,effect on root length of rice seedlings,[4]; [8],reduced root length
"CCOC(=O)C1CC(=O)C(=C(O)C2CC2)C(=O)C1 (centres unmarked) [trinexapac-ethyl, reference compound]",root length (cm) of rice cv. Cheniere,"[4]; Table 3, PESA salt 0 mg/liter, trinexapac-ethyl 1 mg/liter",10.9 cm
same,root length (cm) of rice cv. Cheniere,"[4]; Table 3, PESA salt 0 mg/liter, trinexapac-ethyl 10 mg/liter",9.9 cm
same,root length (cm) of rice cv. Cheniere,"[4]; Table 3, PESA salt 0 mg/liter, trinexapac-ethyl 100 mg/liter",5.0 cm
same,effect on main root length of rice cv. Cheniere,[4],negative effect on main root length
